Test results taken from ChEMBL document CHEMBL1146830, “Synthesis and biological evaluation of nonpeptide integrin antagonists containing spirocyclic scaffolds” (Bioorg Med Chem Lett, 2004).

Legend:
Integrin alpha-5/beta-1 = Integrin alpha-5/beta-1 (Homo sapiens, UniProt P05556+P08648); assay: Alpha-5 beta-1 antagonism using an ELISA assay; assay type: functional
[1] = target: Integrin alpha-V/beta-3 (Homo sapiens); assay: Evaluated in an functional alpha-v beta-3 antagonism assay, involving adhesion of beta-3-transfected 293 cells to fibrinogen (alpha-v beta-3 293 beta3)
[2] = target: Integrin alpha-V/beta-3 and alpha-IIb/beta 3 (Homo sapiens, UniProt P05106+P06756+P08514); assay: Inhibition of platelet aggregation in human platelet-rich plasma alpha IIb beta-3 integrin to assess the selectivity for the alpha-v beta-3 over the GPIIb/IIIa integrin receptor

Chain of Integrin alpha-5/beta-1 (P05556 21-798 limits assumed): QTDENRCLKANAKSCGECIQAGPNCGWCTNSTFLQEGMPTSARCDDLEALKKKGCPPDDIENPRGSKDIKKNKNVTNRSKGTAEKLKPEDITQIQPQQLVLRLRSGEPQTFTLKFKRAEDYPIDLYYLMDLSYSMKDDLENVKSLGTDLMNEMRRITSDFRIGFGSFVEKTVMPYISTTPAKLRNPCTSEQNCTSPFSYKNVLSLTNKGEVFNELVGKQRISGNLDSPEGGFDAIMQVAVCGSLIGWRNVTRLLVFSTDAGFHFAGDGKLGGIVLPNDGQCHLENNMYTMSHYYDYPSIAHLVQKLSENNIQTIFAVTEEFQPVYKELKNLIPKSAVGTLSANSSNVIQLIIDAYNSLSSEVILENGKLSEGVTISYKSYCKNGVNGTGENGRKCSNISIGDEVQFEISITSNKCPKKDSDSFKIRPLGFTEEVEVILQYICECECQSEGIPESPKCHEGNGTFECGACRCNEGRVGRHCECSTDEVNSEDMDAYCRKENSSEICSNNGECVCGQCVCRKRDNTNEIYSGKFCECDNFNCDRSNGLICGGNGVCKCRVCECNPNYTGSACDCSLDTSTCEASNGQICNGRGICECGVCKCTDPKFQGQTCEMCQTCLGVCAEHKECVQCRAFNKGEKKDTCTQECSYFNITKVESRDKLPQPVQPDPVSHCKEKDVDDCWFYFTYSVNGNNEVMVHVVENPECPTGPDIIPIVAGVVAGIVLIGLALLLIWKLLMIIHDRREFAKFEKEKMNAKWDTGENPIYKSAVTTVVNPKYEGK
Chain of Integrin alpha-5/beta-1 (P08648 42-894 limits assumed): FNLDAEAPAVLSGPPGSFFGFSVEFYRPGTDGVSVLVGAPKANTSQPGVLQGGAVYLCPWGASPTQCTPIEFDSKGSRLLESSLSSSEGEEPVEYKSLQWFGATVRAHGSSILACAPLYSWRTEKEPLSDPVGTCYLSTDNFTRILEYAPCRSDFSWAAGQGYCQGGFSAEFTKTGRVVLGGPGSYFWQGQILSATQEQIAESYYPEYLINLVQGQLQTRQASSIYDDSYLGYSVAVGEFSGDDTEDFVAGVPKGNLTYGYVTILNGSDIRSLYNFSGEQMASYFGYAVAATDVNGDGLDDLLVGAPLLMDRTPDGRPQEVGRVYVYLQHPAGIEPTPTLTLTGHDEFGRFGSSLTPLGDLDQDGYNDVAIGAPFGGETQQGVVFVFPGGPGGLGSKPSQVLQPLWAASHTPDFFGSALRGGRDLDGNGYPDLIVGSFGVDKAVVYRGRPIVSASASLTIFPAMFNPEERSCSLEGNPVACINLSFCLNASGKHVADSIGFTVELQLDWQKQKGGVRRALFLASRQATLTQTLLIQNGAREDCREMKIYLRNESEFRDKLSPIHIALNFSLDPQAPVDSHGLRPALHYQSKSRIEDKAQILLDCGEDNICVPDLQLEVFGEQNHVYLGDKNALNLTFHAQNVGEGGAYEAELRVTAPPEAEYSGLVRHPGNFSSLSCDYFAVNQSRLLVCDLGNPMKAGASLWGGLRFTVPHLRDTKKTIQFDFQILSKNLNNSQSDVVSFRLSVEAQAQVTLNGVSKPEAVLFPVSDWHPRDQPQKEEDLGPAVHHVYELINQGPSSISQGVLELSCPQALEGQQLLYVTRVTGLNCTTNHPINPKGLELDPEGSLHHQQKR
Chain of Integrin alpha-5/beta-1 (P08648 895-1049 limits assumed): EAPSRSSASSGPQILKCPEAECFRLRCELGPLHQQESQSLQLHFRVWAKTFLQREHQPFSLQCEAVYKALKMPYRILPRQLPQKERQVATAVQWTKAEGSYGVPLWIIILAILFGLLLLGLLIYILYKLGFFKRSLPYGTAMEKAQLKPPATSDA

SMILES | IC50 (Integrin alpha-5/beta-1) [nM] | IC50 [1] [nM] | IC50 [2] [nM]
CCCCOC(=O)N1C[C@@]2(CC(C(=O)NC[C@H](NS(=O)(=O)c3c(C)cc(C)cc3C)C(=O)O)=NO2)C[C@H]1CNc1nc2ccccc2[nH]1 | 0.39 | 87 | –
Cc1cc(C)c(S(=O)(=O)N[C@@H](CNC(=O)C2=NO[C@]3(C2)C[C@@H](CNC2=NCCN2)N(C(=O)OCc2ccccc2)C3)C(=O)O)c(C)c1 | 13 | – | 7300
Cc1cc(C)c(S(=O)(=O)N[C@@H](CNC(=O)C2=NO[C@]3(CN[C@H](CNc4ncc[nH]4)C3)C2)C(=O)O)c(C)c1 | 230 | 180 | 1400
CCCCOC(=O)N1C[C@@]2(CC(C(=O)NC[C@H](NS(=O)(=O)c3c(C)cc(C)cc3C)C(=O)O)=NO2)C[C@H]1CNc1ncc[nH]1 | 14 | 130 | 11000
Cc1cc(C)c(S(=O)(=O)N[C@@H](CNC(=O)C2=NO[C@@]3(C2)C[C@@H](CNC2=NCCN2)N(C(=O)OCc2ccccc2)C3)C(=O)O)c(C)c1 | 1200 | – | 9200
Cc1cc(C)c(S(=O)(=O)N[C@@H](CNC(=O)C2=NO[C@]3(C2)C[C@@H](CNc2ccccn2)N(C(=O)OCc2ccccc2)C3)C(=O)O)c(C)c1 | 0.18 | 49 | > 100000
Cc1cc(C)c(S(=O)(=O)N[C@@H](CNC(=O)C2=NO[C@]3(C2)C[C@@H](CNc2nc4ccccc4[nH]2)N(C(=O)OCc2ccccc2)C3)C(=O)O)c(C)c1 | – | 74 | > 100000
Cc1cc(C)c(S(=O)(=O)N[C@@H](CNC(=O)C2=NO[C@]3(C2)C[C@@H](CNc2ncc[nH]2)N(C(=O)OCc2ccccc2)C3)C(=O)O)c(C)c1 | 18 | 41 | 34000
Cc1cc(C)c(S(=O)(=O)N[C@@H](CNC(=O)C2=NO[C@]3(C2)C[C@@H](CNc2ncc[nH]2)N(C(=O)OCc2cccnc2)C3)C(=O)O)c(C)c1 | 39 | 32 | 5600
COC(=O)N1C[C@@]2(CC(C(=O)NC[C@H](NS(=O)(=O)c3c(C)cc(C)cc3C)C(=O)O)=NO2)C[C@H]1CNc1ncc[nH]1 | 21 | 57 | 7300
COC(=O)N1C[C@@]2(CC(C(=O)NC[C@H](NS(=O)(=O)c3c(C)cc(C)cc3C)C(=O)O)=NO2)C[C@H]1CNc1nc2ccccc2[nH]1 | 1.4 | 34 | > 100000
